These results are taken from ChEMBL document CHEMBL1201862, “PubChem BioAssay data set” (2004).

Test systems include SK-MEL-2; SF-539; SNB-75; NCI-H23; HOP-62; SNB-19; BT-549; UO-31; 786-0; HT-29; Malme-3M; K562; HL-60; OVCAR-5; OVCAR-3; NCI-H226; A549; SF-295; HCT-15.
Holding throughout (experiment): NCI tumour cell line growth inhibition, 48 h

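Results reflect a 48-hour exposure of cells in 96-well plates to compound at five concentrations. GI50 is the concentration that inhibits growth by half.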 Calls of active or inactive are those of the source. No stated cut-off is given here; in the data, active = GI50 up to about 1.1 µM and inactive = higher.

In the case of `O=C(NN1C(=O)/C(=C/c2ccc(Cl)cc2)N=C1c1ccccc1)c1c(Cl)c(Cl)c(Cl)c(Cl)c1-c1nc2ccccc2[nH]1`, the GI50 in the assay with SK-MEL-2 is 18.6 µM (inactive); with SF-539 it was 23.8 µM (inactive); with SNB-75, 12.2 µM (inactive); in the assay with NCI-H23, 13.4 µM (inactive); in the assay on HOP-62 it was < 0.01 µM (active); in the assay on SNB-19, 22.1 µM (inactive). Also, the GI50 was 13.4 µM (inactive) in the assay with BT-549; 16.3 µM (inactive) in the assay with UO-31; 18.5 µM (inactive) with 786-0; 27.4 µM (inactive) in the assay with HT-29; 20.8 µM (inactive) with Malme-3M; 4.28 µM (inactive) in the assay with K562. In addition, the GI50 with HL-60 is 18.9 µM (inactive); with OVCAR-5 it was 29.1 µM (inactive); with OVCAR-3, 33 µM (inactive); with NCI-H226 it was 8 µM (inactive); in the assay on A549, 5.98 µM (inactive); in the assay with SF-295, < 0.01 µM (active). In addition, the GI50 with HCT-15 was 9.62 µM.
For `CN1CN(c2ccccc2)C2(CCN(Cc3nc4ccccc4s3)CC2)C1=O`, the GI50 was 18.6 µM (inactive) in the assay with SK-MEL-2; 17.8 µM (inactive) in the assay with SF-539; 16.7 µM (inactive) with SNB-75; 18.1 µM (inactive) in the assay on NCI-H23; 16.6 µM (inactive) in the assay on HOP-62; 15 µM (inactive) in the assay on SNB-19. In addition, the GI50 is 16.1 µM (inactive) with BT-549; 14.6 µM (inactive) with UO-31; 17.2 µM (inactive) in the assay on 786-0; 17 µM (inactive) in the assay on HT-29; 17.8 µM (inactive) in the assay with Malme-3M; 13.8 µM (inactive) in the assay with K562. The GI50 in the assay on HL-60 is 11.4 µM (inactive); in the assay with OVCAR-5, 17.7 µM (inactive); in the assay with OVCAR-3 it was 15.7 µM (inactive); in the assay on NCI-H226 it was 16.4 µM (inactive); in the assay with A549, 17.3 µM (inactive); with SF-295, 17.9 µM (inactive). Further, in the assay on HCT-15, the GI50 was 18.8 µM.
Take `Cc1ccc(Nc2ncnc3sc(SCc4ccccc4)nc23)cc1`: the GI50 with SK-MEL-2, with SF-539, with SNB-75, in the assay on NCI-H23, with HOP-62 and in the assay with SNB-19 was > 100 µM (inactive) in each case. For the same molecule, the GI50 was > 100 µM (inactive) with BT-549; 56 µM (inactive) in the assay with UO-31; > 100 µM (inactive) in the assay with 786-0; 36.1 µM (inactive) in the assay with HT-29; > 100 µM (inactive) in the assay on Malme-3M; > 100 µM (inactive) in the assay on K562. Moreover, the GI50 in the assay with HL-60 was > 100 µM (inactive); in the assay with OVCAR-5, 43.7 µM (inactive); with OVCAR-3, > 100 µM (inactive); with NCI-H226, > 100 µM (inactive); with A549 it was 88.9 µM (inactive); in the assay with SF-295, 74.8 µM (inactive). The GI50 with HCT-15 is 57.7 µM.
For the molecule `O=C(CNCc1ccccc1)Oc1c(Cl)c(Cl)c(Cl)c(Cl)c1Cl`, the GI50 with SK-MEL-2 was 29.2 µM (inactive); in the assay on SF-539, 32.3 µM (inactive); with SNB-75 it was 33.6 µM (inactive); with NCI-H23 it was > 100 µM (inactive); in the assay with HOP-62 it was 76.7 µM (inactive); in the assay on SNB-19, 28.6 µM (inactive). The GI50 in the assay with BT-549 is 17.3 µM (inactive); with UO-31, 20.6 µM (inactive); in the assay with 786-0 it was 93.1 µM (inactive); with HT-29 it was 32.7 µM (inactive); in the assay on Malme-3M it was 26 µM (inactive); in the assay with K562, 34.8 µM (inactive). The GI50 was 23.8 µM (inactive) with HL-60; 66.5 µM (inactive) in the assay with OVCAR-5; 22.5 µM (inactive) with OVCAR-3; 28.4 µM (inactive) in the assay with NCI-H226; 30.4 µM (inactive) in the assay on A549; 27.2 µM (inactive) in the assay with SF-295. This molecule also gave a GI50 with HCT-15 of 25.4 µM.
Consider `CC1=NN2C(=N)/C(=C/c3ccco3)C(=O)N=C2S1`, for which the GI50 in the assay on SK-MEL-2, in the assay on SF-539, in the assay with SNB-75, in the assay with NCI-H23, with HOP-62 and with SNB-19 was > 100 µM (inactive) each time. In addition, the GI50 in the assay with BT-549, in the assay with UO-31, with 786-0, in the assay on HT-29, with Malme-3M and in the assay on K562 was > 100 µM (inactive) throughout. The GI50 in the assay with HL-60, in the assay with OVCAR-5, in the assay on OVCAR-3, with NCI-H226, with A549 and in the assay with SF-295 was > 100 µM (inactive) in each case. In the assay on HCT-15, this molecule came in with a GI50 of more than 100 µM.
As for `Cc1ccccc1OC(C)C(=O)NN1C(=O)CSC1c1ccc(Cl)cc1` (centres undefined), the GI50 in the assay on SK-MEL-2 was > 53.7 µM (inactive); with SF-539, 26.5 µM (inactive); in the assay on SNB-75, 35.7 µM (inactive); in the assay with NCI-H23, 56.1 µM (inactive); in the assay with HOP-62, 21 µM (inactive); with SNB-19 it was 59.2 µM (inactive). For the same molecule, the GI50 in the assay with BT-549 was 44.8 µM (inactive); in the assay with UO-31, > 100 µM (inactive); in the assay with 786-0 it was 18.2 µM (inactive); with HT-29, 18.4 µM (inactive); in the assay on Malme-3M it was 25.7 µM (inactive); in the assay on K562 it was 23.6 µM (inactive). The GI50 was 21.1 µM (inactive) with HL-60; 54.6 µM (inactive) in the assay with OVCAR-5; 31 µM (inactive) with OVCAR-3; > 49.1 µM (inactive) in the assay on NCI-H226; 30.2 µM (inactive) with A549; 25.6 µM (inactive) with SF-295. This molecule also had a GI50 with HCT-15 of 46.6 µM.
In the case of `Cn1c(=S)c2nc(SCCN3C(=O)c4ccccc4C3=O)[nH]c2n(C)c1=O`, the GI50 in the assay with SK-MEL-2, in the assay with SF-539, in the assay with SNB-75, in the assay with NCI-H23, with HOP-62 and in the assay with SNB-19 was > 100 µM (inactive) throughout. For the same molecule, the GI50 in the assay on BT-549, with UO-31, in the assay on 786-0, in the assay on HT-29, in the assay on Malme-3M and in the assay on K562 was > 100 µM (inactive) in each case. Moreover, the GI50 in the assay with HL-60, in the assay on OVCAR-5, in the assay on OVCAR-3, in the assay with NCI-H226, with A549 and in the assay on SF-295 was > 100 µM (inactive) each time. In the assay on HCT-15, this molecule showed a GI50 of more than 100 µM.
Regarding `Cn1c2c(c3c(=O)[nH]ncc31)CCCc1ccccc1-2`, the GI50 in the assay on SK-MEL-2 was 20.8 µM (inactive); in the assay on SF-539, 35.7 µM (inactive); in the assay on SNB-75, 23.6 µM (inactive); in the assay on NCI-H23, 37.7 µM (inactive); with HOP-62, 18.9 µM (inactive); with SNB-19, 42.7 µM (inactive). For the same molecule, the GI50 in the assay on BT-549 was 31.2 µM (inactive); in the assay with UO-31, 22.6 µM (inactive); in the assay with 786-0, 27.8 µM (inactive); with HT-29, 28.4 µM (inactive); in the assay with Malme-3M, 22.5 µM (inactive); with K562 it was 11.3 µM (inactive). The GI50 with HL-60 is 0.0817 µM (active); in the assay with OVCAR-5, 45.2 µM (inactive); with OVCAR-3, 26.8 µM (inactive); with NCI-H226, 27.2 µM (inactive); with A549 it was 27.2 µM (inactive); in the assay on SF-295 it was 32.5 µM (inactive). In the assay on HCT-15, this molecule showed a GI50 of 29.8 µM.
Consider `CCOP(=O)(C/C=C/Cn1nc(Br)c(=O)[nH]c1=O)OCC`, for which the GI50 with SK-MEL-2, with SF-539, in the assay with SNB-75, with NCI-H23, with HOP-62 and in the assay on SNB-19 was > 100 µM (inactive) throughout. In addition, the GI50 in the assay with BT-549, with UO-31, with 786-0, in the assay on HT-29, with Malme-3M and in the assay on K562 was > 100 µM (inactive) throughout. Also, the GI50 in the assay with HL-60, in the assay on OVCAR-5, with OVCAR-3, with NCI-H226, in the assay on A549 and in the assay on SF-295 was > 100 µM (inactive) in each case. The GI50 with HCT-15 was more than 100 µM.
For `COC(=O)c1ccc(NCc2cc(O)ccc2O)cc1O`, the GI50 in the assay on SK-MEL-2 was 16.4 µM (inactive); in the assay with SF-539, 1.91 µM (inactive); with SNB-75, 3.08 µM (inactive); with NCI-H23, 9.46 µM (inactive); in the assay with HOP-62 it was 10.9 µM (inactive); in the assay on SNB-19, 13.2 µM (inactive). Further, the GI50 was 3.44 µM (inactive) in the assay on BT-549; 1.82 µM (inactive) in the assay on UO-31; 8.07 µM (inactive) in the assay on 786-0; 17.2 µM (inactive) in the assay on HT-29; 16.4 µM (inactive) in the assay on Malme-3M; 4.1 µM (inactive) in the assay with K562. Besides, the GI50 in the assay on HL-60 was 1.67 µM (inactive); in the assay with OVCAR-5, 16.7 µM (inactive); in the assay with OVCAR-3, 3.6 µM (inactive); with NCI-H226, 14 µM (inactive); in the assay with A549 it was 12.2 µM (inactive); in the assay on SF-295, 12.9 µM (inactive). In the assay on HCT-15, this molecule had a GI50 of 11.9 µM.
On to `COC(=O)c1ccccc1C1CN=NC12Cc1c(C)c3c(c(C)c1C2=O)CCC3` (centres undefined), for which the GI50 with SK-MEL-2 is > 100 µM (inactive); in the assay with SF-539, > 100 µM (inactive); with SNB-75 it was 40.6 µM (inactive); in the assay on NCI-H23, 54.6 µM (inactive); in the assay with HOP-62, 77.4 µM (inactive); with SNB-19, > 100 µM (inactive). In addition, the GI50 with BT-549 is > 100 µM (inactive); with UO-31 it was > 100 µM (inactive); in the assay with 786-0 it was 76.9 µM (inactive); with HT-29 it was 40.1 µM (inactive); in the assay with Malme-3M, > 100 µM (inactive); in the assay with K562, > 100 µM (inactive). Also, the GI50 in the assay on HL-60 was > 100 µM (inactive); in the assay on OVCAR-5 it was > 100 µM (inactive); in the assay on OVCAR-3, > 100 µM (inactive); in the assay on NCI-H226 it was > 100 µM (inactive); in the assay on A549, > 100 µM (inactive); with SF-295, 33.1 µM (inactive). In addition, in the assay with HCT-15, the GI50 was more than 100 µM.
